Where a SMILES comes first, the peptide text is derived from it. The star is where a group is joined. Palmitoyl = CCCCCCCCCCCCCCCC(=O)*
Experiments:
[1] = Control experiments degradation analysis without cells; assay type: physicochemical; conditions: Proteostat-stained fibrils without cells, 37°C, 30 min vs 3 d
Experimental: Control experiments degradation analysis: To check changes of fibril aggregation without cells fluorescence microscopy measurements (Leica DMi8 microscope, 10x air objective, Leica MC170 HD camera, λem = 527/30 nm, λex = 480/40 nm) were performed analogously to the cell‐experiments with PA1‐3. Briefly, 4 µL of the preformed peptide fibrils (1 mg mL^−1) were diluted with 4 µL Proteostat (Enzo Life Science, 1 µL stock in 999 µL PBS) and incubated for 10 min and further diluted with medium to receive a final peptide concentration of 20 µg mL^−1. The fibril aggregates were monitored after 30 min incubation at 37°C and for the evaluation of aggregate degradation, the samples were further incubated at 37°C for 3 d and analyzed without any additional washing step. […] The evaluation of aggregate size and number was conducted by analyzing Proteostat stained aggregates via the 3D objects counter function of ImageJ 1.53f51 for at least three individual measurements (area 1331.2 µm × 1331.2 µm) of three individually repeated experiments. […]
Aggregate analysis was conducted via fluorescence microscopy by cumulating triplicate measurements. […]

[2] = test system: HeLa cells; assay: Confocal microscopy degradation study with PA1-3 and HeLa cells; assay type: in vitro ADME; conditions: for degradation of aggregates > 10 µm^2 over 3 days: HeLa cells, 4 µg peptide (20 µg mL-1) added to 40,000 cells, 37°C, 30 min vs 3 d, Proteostat stain, confocal microscopy
Experimental: (§1) Confocal laser scanning microscopy and degradation study with PA1‐3 and HeLa cells: HeLa cells were seeded one day prior to conducting the assay (40000/well) in an 8‐well IBIDI slide. 4 µL of the preformed peptide fibrils (1 mg mL^−1) were diluted with 4 µL Proteostat (Enzo Life Science, 1 µL stock in 999 µL PBS) and incubated for 10 min and further diluted with medium to receive a final peptide concentration of 20 µg mL^−1. The nucleus of the HeLa cells was stained with Hoechst 33 342 (NucBlue, Thermo Fisher Scientific). The peptide solution was transferred to the HeLa cells and incubated for 30 min at 37°C before washing three times with PBS. The interaction of fibril clusters with cells was monitored after 30 min incubation time on a Stellaris 8 confocal laser scanning microscope (Leica) equipped with a 20x air objective and laser excitation wavelengths of 405 nm (Hoechst) and 561 nm (Proteostat). For the evaluation of aggregate degradation, the samples were further incubated at 37°C for 3 d and analyzed without any additional washing step. The evaluation of aggregate size and number was conducted by analyzing Proteostat stained aggregates via the 3D objects counter function of ImageJ 1.53f51 for 3 individual measurements (area 581.25 µm × 581.25 µm). […] The number of aggregates larger than 10 µm^2 were counted via the 3D objects counter function of ImageJ 1.53f51. The mean number and standard deviations were determined by averaging at least three technical triplicates.

[3] = test system: HeLa cells; assay: Cell-PA interaction by confocal laser scanning microscopy; assay type: cell-based; conditions: peptide 20 µg mL-1 added for 30 min, washed, Proteostat stain
Experimental: as §1
Figure S6 Laser scanning microscopy micrographs of A cells only (control), and Proteostat-stained (red) peptides B EF-
C ([…]), C PA1, D PA2, E PA3, F P1, G P2, H P3 added to HeLa cells (nucleus in blue). The peptides (20 µg mL-
1) were added to cells for 30 min, washed and analyzed. […]

[4] = Zeta-potential measurement; assay type: physicochemical; conditions: fibrils 1 mg mL-1 in PBS, 60 µL diluted in 600 µL 1 mM KCl; triplicates
Experimental: Zeta‐potential: 60 µL of the peptides (1 mg mL^−1) were diluted in 600 µL, 1 mM KCl solution and placed in a disposable folded capillary cuvette. All zeta‐potential measurements (Zetasizer, Malvern Instruments) were conducted in triplicates for each sample.

Compound	change of aggregate size and number without cells [1]	degradation of aggregates > 10 µm^2 over 3 days [2]	aggregate size (large aggregates) ([2]; confocal aggregate size analysis with HeLa cells)	association with cellular membranes [3]	Zeta-Potential [4]
CCCCCCCCCCCCCCCC(=O)N[C@@H](Cc1ccccc1)C(=O)N[C@@H](CCC(N)=O)C(=O)N[C@@H](Cc1ccccc1)C(=O)N[C@@H](CCCCN)C(=O)N[C@@H](Cc1ccccc1)C(=O)N[C@@H](CCCCN)C(=O)N[C@@H](CS)C(N)=O [PA2] (Palmitoyl-FQFKFKC-NH2)	not significantly changing in size and number	52%	> 50 µm^2	association with cellular membranes	+19.2 ± 3.4 mV
C16-VVVAAAKKK-NH2 [PA1]	not significantly changing in size and number	94%	–	association with cellular membranes	+22.2 ± 0.7 mV

From paper PMC11468294, “Peptide Amphiphiles as Biodegradable Adjuvants for Efficient Retroviral Gene Delivery” (Advanced Healthcare Materials, 2023)
